Test results as given in ChEMBL document CHEMBL4622844, “Inhibition of bacterial growth and galactosyltransferase activity of WbwC by α, ω-bis(3-alkyl-1H-imidazolium)alkane salts: Effect of varying carbon content” (Bioorg Med Chem, 2020).
Values belong to the compound of their own block, whether it stands above or below them. Activity calls are given as the source filed them. No cut-off for these calls is given here.

Assays:
[1] = Inhibition of recombinant Escherichia coli O104:H4 Beta-1,3-galactosyltransferase WbwC expressed in Escherichia coli BL21 in presence of UDP-[3H]Gal and GalNAC-PO3-PO3-(CH2)11-O-phenyl after 1 hr by scintillation counting method
Pseudomonas aeruginosa [2] = experiment: Antimicrobial activity against Pseudomonas aeruginosa PAO1 assessed as inhibition of colony formation at 50 uM preincubated for 4 hrs and measured after overnight incubation by CFU assay; format: functional
Escherichia coli [3] = experiment: Inhibition of recombinant Escherichia coli O104:H4 Beta-1,3-galactosyltransferase WbwC expressed in Escherichia coli BL21 at 0.5 mM in presence of UDP-[3H]Gal and GalNAC-PO3-PO3-(CH2)11-O-phenyl after 1 hr by scintillation counting method relative to control
Pseudomonas aeruginosa [4] = experiment: Antimicrobial activity against Pseudomonas aeruginosa PAO1 assessed as inhibition of colony formation at 25 uM preincubated for 4 hrs and measured after overnight incubation by CFU assay; format: functional
A549 [5] = experiment: Growth inhibition of human A549 cells at 0.5 mM after 24 hrs by MTT assay; format: cell-based; conditions: a549, 24 h, 500 µM
PC-3 [6] = experiment: Growth inhibition of human PC3 cells at 0.5 mM after 24 hrs by MTT assay; format: cell-based; conditions: pc-3, 24 h, 500 µM
PC-3 [7] = experiment: Growth inhibition of human PC3 cells after 24 hrs by MTT assay; format: cell-based; conditions: pc-3, 24 h
[8] = Growth inhibition of human OC-3-VGH cells at 0.5 mM after 24 hrs by MTT assay; format: cell-based; conditions: read-out: GI
AD293 [9] = experiment: Growth inhibition of human AD293 cells after 24 hrs by MTT assay; format: cell-based; conditions: ad293, 24 h
AD293 [10] = experiment: Growth inhibition of human AD293 cells at 0.5 mM after 24 hrs by MTT assay; format: cell-based; conditions: ad293, 24 h, 500 µM
A549 [11] = experiment: Growth inhibition of human A549 cells after 24 hrs by MTT assay; format: cell-based; conditions: a549, 24 h
OC-3-VGH [12] = experiment: Growth inhibition of human OC-3-VGH cells after 24 hrs by MTT assay; format: cell-based
[13] = biological target: T1, Beta-1,4-galactosyltransferase 1 (Bos taurus) (UniProt P08037); experiment: Inhibition of bovine milk Beta-1,4-galactosyltransferase at 0.5 mM in presence of UDP-[3H]Gal and GlcNAc-beta-Bn after 1 hr by scintillation counting method
T1 sequence (whole entry): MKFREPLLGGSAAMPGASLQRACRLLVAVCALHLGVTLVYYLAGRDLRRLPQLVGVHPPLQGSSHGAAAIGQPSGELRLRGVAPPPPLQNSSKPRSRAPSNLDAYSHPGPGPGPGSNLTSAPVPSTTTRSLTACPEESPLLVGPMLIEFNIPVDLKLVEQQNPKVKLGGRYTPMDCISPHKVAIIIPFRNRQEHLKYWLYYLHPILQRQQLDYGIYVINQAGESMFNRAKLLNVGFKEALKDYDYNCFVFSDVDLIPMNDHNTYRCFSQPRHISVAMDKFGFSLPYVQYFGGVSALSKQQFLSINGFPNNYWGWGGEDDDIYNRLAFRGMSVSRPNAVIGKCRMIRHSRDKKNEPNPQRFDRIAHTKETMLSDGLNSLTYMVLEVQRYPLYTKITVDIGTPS

[14] = Growth inhibition of human OC-3-VGH cells at 1 mM after 24 hrs by MTT assay; format: cell-based; conditions: read-out: GI
Bacillus subtilis [15] = experiment: Antimicrobial activity against Bacillus subtilis assessed as inhibition of colony formation at 5 uM preincubated for 4 hrs and measured after overnight incubation by CFU assay; format: functional
Pseudomonas aeruginosa [16] = experiment: Antimicrobial activity against Pseudomonas aeruginosa PAO1 assessed as inhibition of colony formation at 5 uM preincubated for 4 hrs and measured after overnight incubation by CFU assay; format: functional
Bacillus subtilis [17] = experiment: Antimicrobial activity against Bacillus subtilis assessed as inhibition of colony formation at 10 uM preincubated for 4 hrs and measured after overnight incubation by CFU assay; format: functional
Bacillus subtilis [18] = experiment: Antimicrobial activity against Bacillus subtilis assessed as inhibition of colony formation at 25 uM preincubated for 4 hrs and measured after overnight incubation by CFU assay; format: functional
Escherichia coli [19] = experiment: Antimicrobial activity against Escherichia coli BL21 assessed as inhibition of colony formation at 10 uM preincubated for 4 hrs and measured after overnight incubation by CFU assay; format: functional
[20] = test system: Staphylococcus epidermidis; experiment: Antimicrobial activity against Staphylococcus epidermidis assessed as inhibition of colony formation at 5 uM preincubated for 4 hrs and measured after overnight incubation by CFU assay; format: functional
Pseudomonas aeruginosa [21] = experiment: Antimicrobial activity against Pseudomonas aeruginosa PAO1 assessed as inhibition of colony formation at 10 uM preincubated for 4 hrs and measured after overnight incubation by CFU assay; format: functional
[22] = test system: Staphylococcus epidermidis; experiment: Antimicrobial activity against Staphylococcus epidermidis assessed as inhibition of colony formation at 25 uM preincubated for 4 hrs and measured after overnight incubation by CFU assay; format: functional
[23] = test system: Staphylococcus epidermidis; experiment: Antimicrobial activity against Staphylococcus epidermidis assessed as inhibition of colony formation at 10 uM preincubated for 4 hrs and measured after overnight incubation by CFU assay; format: functional
Escherichia coli [24] = experiment: Antimicrobial activity against Escherichia coli BL21 assessed as inhibition of colony formation at 5 uM preincubated for 4 hrs and measured after overnight incubation by CFU assay; format: functional
Escherichia coli [25] = experiment: Antimicrobial activity against Escherichia coli BL21 assessed as inhibition of colony formation at 25 uM preincubated for 4 hrs and measured after overnight incubation by CFU assay; format: functional
A549 [26] = experiment: Growth inhibition of human A549 cells at 50 uM after 24 hrs by MTT assay; format: cell-based; conditions: a549, 24 h
AD293 [27] = experiment: Growth inhibition of human AD293 cells at 50 uM after 24 hrs by MTT assay; format: cell-based; conditions: ad293, 24 h
OC-3-VGH [28] = experiment: Growth inhibition of human OC-3-VGH cells at 50 uM after 24 hrs by MTT assay; format: cell-based

IC50 [1]: 159 µM | inhibition (Escherichia coli [3]): 91%
SMILES: C[n+]1ccn(CCCCCCCCCCCCCCCCCCCCCCn2cc[n+](C)c2)c1
inhibition at 50 µM (Pseudomonas aeruginosa [2]): 100% | inhibition at 25 µM (Pseudomonas aeruginosa [4]): > 95%

inhibition (Escherichia coli [3]): < 1%
SMILES: C[n+]1ccn(CCCCCCCCCCCCCCCCCCn2cc[n+](C)c2)c1.[Cl-].[Cl-]
growth inhibition (GI) (A549 [5]): Toxic | growth inhibition (GI) (PC-3 [6]): Toxic | growth inhibition (GI) (PC-3 [7]): Toxic | inhibition at 24 h, 500 µM [8]: 80% | growth inhibition (GI) (AD293 [9]): Toxic | growth inhibition (GI) (AD293 [10]): Toxic | growth inhibition (GI) (A549 [11]): Toxic | IC50 (OC-3-VGH [12]): 5 to 12 µM

inhibition (Escherichia coli [3]): 21%
SMILES: C[n+]1ccn(CCCCCCCCn2cc[n+](C)c2)c1

inhibition [13]: Active | IC50 [1]: 121 µM | inhibition (Escherichia coli [3]): 92%
SMILES: CCCCCCCCCCCC[n+]1ccn(CCCCCCCCCCCCCCCCn2cc[n+](CCCCCCCCCCCC)c2)c1

inhibition (Escherichia coli [3]): 7%
SMILES: C[n+]1ccn(CCCCCCn2cc[n+](C)c2)c1
inhibition at 50 µM (Pseudomonas aeruginosa [2]): 0%

inhibition [13]: Active | IC50 [1]: 43 µM | inhibition (Escherichia coli [3]): 90%
SMILES: CCCCCCCCCCCC[n+]1ccn(CCCCCCn2cc[n+](CCCCCCCCCCCC)c2)c1

inhibition (Escherichia coli [3]): 9%
SMILES: C[n+]1ccn(CCCCn2cc[n+](C)c2)c1
inhibition at 50 µM (Pseudomonas aeruginosa [2]): 0%

inhibition [13]: inactive
SMILES: CCCC(=O)N[C@@H]1[C@@H](O)[C@H](O)[C@@H](CO)O[C@H]1Sc1ccc2ccccc2c1
inhibition at 24 h, 1000 µM [14]: 50% | inhibition (Pseudomonas aeruginosa [2]): inactive

inhibition (Escherichia coli [3]): < 1%
SMILES: CCCCCC[n+]1ccn(CCCCCCCCCCn2cc[n+](CCCCCC)c2)c1

inhibition (Escherichia coli [3]): < 10%
SMILES: CCCCCCCCC[n+]1ccn(CCCCCCn2cc[n+](CCCCCCCCC)c2)c1

IC50 [1]: 62 µM | inhibition (Escherichia coli [3]): 98%
SMILES: CCCCCCCCCCC[n+]1ccn(CCCCCCCCCCn2cc[n+](CCCCCCCCCCC)c2)c1

inhibition [13]: Active | IC50 [1]: 23 µM | inhibition (Escherichia coli [3]): 95%
SMILES: CCCCCCCCC[n+]1ccn(CCCCCCCCCCn2cc[n+](CCCCCCCCC)c2)c1

inhibition (Escherichia coli [3]): 10%
SMILES: C[n+]1ccn(CCCCCCCCCCCCCCn2cc[n+](C)c2)c1
inhibition at 5 µM (Bacillus subtilis [15]): 8% | inhibition at 5 µM (Pseudomonas aeruginosa [16]): 0% | inhibition at 10 µM (Bacillus subtilis [17]): 20% | inhibition at 25 µM (Bacillus subtilis [18]): 51% | inhibition at 10 µM (Escherichia coli [19]): 32% | inhibition at 5 µM [20]: 0% | inhibition at 25 µM (Pseudomonas aeruginosa [4]): 22% | inhibition at 10 µM (Pseudomonas aeruginosa [21]): 4% | inhibition at 25 µM [22]: 0% | inhibition at 10 µM [23]: 0% | inhibition at 5 µM (Escherichia coli [24]): 0% | inhibition at 25 µM (Escherichia coli [25]): 51%

SMILES: c1cn(CCCCCCCCCCCCCCCCCCn2ccnc2)cn1
growth inhibition (GI) (A549 [26]): Non-Toxic | growth inhibition (GI) (AD293 [27]): Non-Toxic | growth inhibition (GI) (OC-3-VGH [28]): Non-Toxic

IC50 [1]: 117 µM | inhibition (Escherichia coli [3]): 99%
SMILES: CCCCCCCCCCC[n+]1ccn(CCCCCCn2cc[n+](CCCCCCCCCCC)c2)c1

inhibition (Escherichia coli [3]): 16%
SMILES: CCCCCCC[n+]1ccn(CCCCCCn2cc[n+](CCCCCCC)c2)c1

inhibition (Escherichia coli [3]): < 1%
SMILES: CCCCCCC[n+]1ccn(CCCCCCCCCCn2cc[n+](CCCCCCC)c2)c1
